Measurements: patent US9643994B2, “Crystalline polymorphic form of ulipristal acetate” (ASKA PHARMACEUTICAL CO., LTD., priority 2012, dated 2017)
≈ marks a conversion by molar mass, not a printed value. Like-named read-outs stand apart in the source and are kept apart here.

Test: Solubility in ethanol/water (10/90) mixed solvent at 37° C., HPLC quantitation
Format: physicochemical
Text: [Solubility] […] Then a portion of the suspension was separated.

Row | Compound | Solubility [µg/mL] | Solubility (40 mg in 40 mL ethanol/water (volume ratio)=10/90, 37° C., stirred 5 minutes, filtered, HPLC UV 302 nm) [µg/mL]
1 | CC(=O)O[C@]1(C(C)=O)CCC2C3CCC4=CC(=O)CCC4=C3[C@@H](c3ccc(N(C)C)cc3)C[C@@]21C (stereo partly drawn) [Comparative Example, 17alpha-acetoxy-11beta-(4-N,N-dimethylaminophenyl)-19-norpregna-4,9-diene-3,20-dione] | 6.4 (≈ 13.5 µM) | –
2 | CC(=O)O[C@]1(C(C)=O)CCC2C3CCC4=CC(=O)CCC4=C3[C@@H](c3ccc(N(C)C)cc3)C[C@@]21C (stereo partly drawn) [Example 1, 17alpha-acetoxy-11beta-(4-N,N-dimethylaminophenyl)-19-norpregna-4,9-diene-3,20-dione] | – | 9.2
